According to article PMC11024961, “Effects of Chrysin and Chrysin-7-sulfate on Ochratoxin A-Albumin Interactions and on the Plasma and Kidney Levels of the Mycotoxin in Rats” (ACS Omega, 2024):
Values joined by “and” are separate entries in the source; they are usually repeats but may differ in a detail not shown here. Equal entries are not always repeated.

How the values were obtained:
[1] = molecular target: T1, human serum albumin (HSA) (Homo sapiens, UniProt P02768); experiment: biochemical; format: binding; details: for unbound fraction of OTA with HSA: OTA 1.0 μM, HSA 1.5 μM, PBS pH 7.4
T1 construct: purchased Merck (Darmstadt, Germany) A1653
Procedure: (§1) Albumin (with the bound ligand molecules) was sedimented with ultracentrifugation, employing the previously described method.[26],[29],[31] […] These solutions (900 μL) were centrifuged for 16 h at 170,000g and 20 °C, using an Optima MAX-XP tabletop ultracentrifuge (with an MLA-130 fixed-angle rotor; Beckman Coulter, Brea, CA, US). After 200 μL of the protein-free supernatant was carefully aspirated, the free unbound concentration of OTA was directly analyzed from the supernatant by HPLC-FLD (details in Section 2.6). Association constants (Ka) of OTA-HSA and OTA-RSA complexes were calculated based on the following equation, assuming 1:1 stoichiometry of the complex formation:[29],[32] [drawing 3] 3 where [OTA] is the concentration of the unbound free mycotoxin, [SA] is the concentration of the unbound free serum albumin, while [OTA-SA] is the molar concentration of the mycotoxin-albumin complex in the solution.
(§2) OTA was quantified with the previously reported HPLC-FLD method,[48] employing an integrated HPLC system (Jasco, Tokyo, Japan): autosampler (AS-4050), binary pump (PU-4180), fluorescence detector (FP-920), and ChromNAV2 software. Briefly, the isocratic elution was performed with 1.0 mL/min flow rate at room temperature, using sodium borate buffer (0.01 M, pH 10.0) and ACN (87:13 v/v%) as the mobile phase. Samples (20 μL) were driven through a SecurityGuard precolumn (C18, 4.0 × 3.0 mm; Phenomenex, Torrance, CA, US) linked to a Kinetex EVO (C18, 150 × 4.6 mm, 5 μm; Phenomenex) analytical column. The fluorescence detection of the mycotoxin was carried out at 383 and 446 nm excitation and emission wavelengths, respectively.

rat serum albumin (RSA) [2] = molecular target: T2, rat serum albumin (RSA) (Rattus norvegicus, UniProt P02770); experiment: biochemical; format: binding
T2 construct: purchased Merck (Darmstadt, Germany) A6272
Procedure: as §1, §2

HSA [3] = details: cited from earlier work
rat serum albumin (RSA) [4] = molecular target: T2, rat serum albumin (RSA); set-up: method as in doi:10.1016/j.jlumin.2013.08.059; details: cited from earlier work
[5] = test system: Bovine serum albumin (BSA); set-up: method as in doi:10.1016/j.jlumin.2013.08.059; details: cited from earlier work
[6] = set-up: method as in PMID 37649524; details: cited from earlier work
[7] = molecular target: T1, human serum albumin (HSA); experiment: Fluorescence emission intensity of OTA-HSA with ligands; format: binding; details: ligand 0–30 μM; OTA 1.0 μM, HSA 1.5 μM; λex 393 nm, λem 446 nm; inner-filter corrected
Procedure: (§3) Fluorescence spectroscopic studies were carried out using a Hitachi F-4500 spectrofluorometer (Tokyo, Japan). Fluorescence emission spectra were collected, and fluorescence anisotropy values were determined in phosphate-buffered saline (PBS, pH 7.4) at room temperature, using 393 and 446 nm as excitation and emission wavelengths, respectively. […] Absorption spectra of ligand molecules were also recorded employing a Jasco V730 UV–vis spectrophotometer (Tokyo, Japan), after which their inner-filter effects were corrected using the following equation:[28],[29] [drawing 1] 1 where Icor and Iobs are the corrected and the observed fluorescence emission intensities at 446 nm, respectively, while Aex and Aem are the absorbance values of the competitor ligand molecules at 393 and 446 nm, respectively.

rat serum albumin (RSA) [8] = molecular target: T2, rat serum albumin (RSA); experiment: Fluorescence emission intensity of OTA-RSA with ligands; format: binding; details: ligand 0–30 μM; OTA 1.0 μM, RSA 1.5 μM; λex 393 nm, λem 446 nm; inner-filter corrected
Procedure: as §3

[9] = molecular target: T1, human serum albumin (HSA); experiment: Fluorescence anisotropy of OTA-HSA with ligands; format: binding
Procedure: as §3
(§4) Fluorescence anisotropy (r) values were calculated employing the following equation:[10],[30] [drawing 2] 2 where IVV is the emission intensity measured in vertical positions of the polarizers at both the presample and the postsample sites, IVH is the emission intensity measured in vertical position of the polarizer at presample site and in horizontal position of the polarizer at the postsample site, while G is the instrumental factor (showing the preference of the emission optics for the horizontal orientation to the vertical orientation).

[10] = Plasma and kidney levels of OTA after single i.v. OTA with or without C7S; format: in vivo, Wistar rats
Procedure: (§5) Male Wistar rats were obtained from Toxi-Coop Ltd. (Budapest, Hungary). The animals (weighing 150–250 g) were kept at 24 ± 2 °C, at 50–60% relative air humidity, and on a 12 h light/dark cycle in the Laboratory Animal House of the Department of Pharmacology and Pharmacotherapy (Medical School, University of Pécs) under standard pathogen-free conditions and were provided with standard rat chow and tap water ad libitum.
Stock solution of OTA (10 mg/mL) was prepared in 96 v/v% ethanol (Reanal, Budapest, Hungary). C7S (90 mg/mL) were dissolved in dimethyl sulfoxide (Fluka, Charlotte, NC, US). In the i.v. experiments, the final concentration of dimethyl sulfoxide was uniformly 1.67 v/v % in each solution administered. In the per os experiments, CHR was suspended in physiological saline by using a mortar and pestle.
In the first experiment, rats were weighed and then treated intravenously through the tail vein with OTA (50 μg/kg, 2 mL/kg, in physiological saline) without or with C7S (1 or 3 mg/kg). Before and after the treatment, rats consumed feed and water ad libitum. Blood samples (approximately 100–150 μL) were collected from the tail vein into heparinized tubes after 2 and 6 h. After 24 h, blood (cardiac puncture) and kidney samples were collected. Plasma and tissue samples were stored at −80 °C until analysis.
Sample preparation was performed as it has been previously reported.[48] Briefly, after centrifugation, rat plasma was diluted with a 2-fold volume of acetonitrile, and then samples were vortexed, sonicated for 3 min, and centrifuged for 5 min at 14,000g and 4 °C. Thereafter, a 2-fold volume of HPLC eluent (see in Section 2.6) was added to the supernatant. These samples were directly analyzed by HPLC-FLD (see Section 2.6).
After weighing, kidney samples were homogenized with a 2-fold amount of water employing a Potter–Elvehjem tissue homogenizer. Then, 100 μL of homogenate was diluted with 2-fold volume of acetonitrile, after which these samples were treated the same way as plasma samples (vortexing, sonication, centrifugation, 2-fold dilution with HPLC eluent, and then HPLC-FLD analysis).
OTA was quantified with the previously reported HPLC-FLD method,[48] employing an integrated HPLC system (Jasco, Tokyo, Japan): autosampler (AS-4050), binary pump (PU-4180), fluorescence detector (FP-920), and ChromNAV2 software. Briefly, the isocratic elution was performed with 1.0 mL/min flow rate at room temperature, using sodium borate buffer (0.01 M, pH 10.0) and ACN (87:13 v/v%) as the mobile phase. […] The fluorescence detection of the mycotoxin was carried out at 383 and 446 nm excitation and emission wavelengths, respectively.

HSA [11] = test system: HSA; set-up: method as in PMID 30562928; details: cited from earlier work
rat serum albumin (RSA) [12] = molecular target: T2, rat serum albumin (RSA); experiment: Fluorescence anisotropy of OTA-RSA with ligands; format: binding; details: ligand 0–30 μM; OTA 1.0 μM, RSA 1.5 μM
Procedure: as §3, §4

[13] = Plasma and kidney levels of OTA after repeated peroral OTA with or without CHR; format: in vivo, Wistar rats; details: CHR 1 or 3 mg/kg/day per os with OTA 100 μg/kg/day, three days; sampled on the fourth day
Procedure: as §5
Stock solution of OTA (10 mg/mL) was prepared in 96 v/v% ethanol (Reanal, Budapest, Hungary). C7S (90 mg/mL) were dissolved in dimethyl sulfoxide (Fluka, Charlotte, NC, US). In the i.v. experiments, the final concentration of dimethyl sulfoxide was uniformly 1.67 v/v % in each solution administered. In the per os experiments, CHR was suspended in physiological saline by using a mortar and pestle. […]
Sample preparation was performed as it has been previously reported.[48] […] These samples were directly analyzed by HPLC-FLD (see Section 2.6). […]
OTA was quantified with the previously reported HPLC-FLD method,[48] employing an integrated HPLC system (Jasco, Tokyo, Japan): autosampler (AS-4050), binary pump (PU-4180), fluorescence detector (FP-920), and ChromNAV2 software. […] The fluorescence detection of the mycotoxin was carried out at 383 and 446 nm excitation and emission wavelengths, respectively.

[14] = ligand 0–30 μM, OTA 1.0 μM, HSA 1.5 μM
[15] = C7S 3 mg/kg i.v. with OTA 50 μg/kg i.v., 24 h

T1 sequence (P02768 25-609): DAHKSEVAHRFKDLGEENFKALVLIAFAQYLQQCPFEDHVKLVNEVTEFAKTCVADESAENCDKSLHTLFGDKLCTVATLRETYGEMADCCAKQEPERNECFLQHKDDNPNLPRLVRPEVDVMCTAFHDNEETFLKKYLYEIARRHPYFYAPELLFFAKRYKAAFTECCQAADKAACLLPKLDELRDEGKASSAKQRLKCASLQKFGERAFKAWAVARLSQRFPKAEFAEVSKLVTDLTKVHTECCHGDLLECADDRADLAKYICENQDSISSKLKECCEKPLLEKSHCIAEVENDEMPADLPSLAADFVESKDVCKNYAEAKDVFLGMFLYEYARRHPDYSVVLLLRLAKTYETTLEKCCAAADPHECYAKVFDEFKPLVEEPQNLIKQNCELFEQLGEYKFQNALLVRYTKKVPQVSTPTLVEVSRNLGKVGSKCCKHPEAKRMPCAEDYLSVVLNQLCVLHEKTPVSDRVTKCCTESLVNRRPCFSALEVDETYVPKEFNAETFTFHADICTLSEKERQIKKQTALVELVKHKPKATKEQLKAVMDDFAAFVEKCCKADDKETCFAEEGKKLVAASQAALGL
T2 sequence (P02770 25-608): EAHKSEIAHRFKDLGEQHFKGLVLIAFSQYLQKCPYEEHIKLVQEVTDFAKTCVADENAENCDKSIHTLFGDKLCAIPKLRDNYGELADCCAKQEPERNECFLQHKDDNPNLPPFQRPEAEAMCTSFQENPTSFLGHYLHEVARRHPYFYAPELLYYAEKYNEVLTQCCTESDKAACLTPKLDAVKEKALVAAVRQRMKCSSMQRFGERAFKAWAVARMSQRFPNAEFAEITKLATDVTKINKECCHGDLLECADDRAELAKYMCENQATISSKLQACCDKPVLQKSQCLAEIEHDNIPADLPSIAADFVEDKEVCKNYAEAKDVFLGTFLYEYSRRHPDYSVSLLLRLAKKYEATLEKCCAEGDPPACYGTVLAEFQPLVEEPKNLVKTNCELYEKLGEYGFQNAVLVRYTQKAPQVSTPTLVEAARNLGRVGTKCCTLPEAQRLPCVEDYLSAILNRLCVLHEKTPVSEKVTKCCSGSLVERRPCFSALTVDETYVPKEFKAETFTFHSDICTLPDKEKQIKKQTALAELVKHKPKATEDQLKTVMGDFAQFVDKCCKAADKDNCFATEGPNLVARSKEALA

| Compound | displacement of OTA from HSA (free fraction), in words ([1]; ligand 0–30 μM, overall) | displacement of OTA from RSA (free fraction), in words (rat serum albumin (RSA) [2]; ligand 0–30 μM, overall) | effect on emission signal of OTA-HSA complex, in words [7] | effect on emission signal of OTA-RSA complex, in words (rat serum albumin (RSA) [8]) | effect on fluorescence anisotropy of OTA-HSA, in words [9, 14] | effect on fluorescence anisotropy of OTA-HSA, in words ([9]; ligand 15 μM) | effect on fluorescence anisotropy of OTA-RSA, in words (rat serum albumin (RSA) [12]) | displacement of OTA from HSA (free fraction), in words ([1]; ligand 30 μM) | other results |
| --- | --- | --- | --- | --- | --- | --- | --- | --- | --- |
| C[C@@H]1Cc2c(Cl)cc(C(=O)N[C@@H](Cc3ccccc3)C(=O)O)c(O)c2C(=O)O1 [OTA, Ochratoxin A] | – | – | – | – | – | – | – | – | Kd [1]: 40 nM; Kd (rat serum albumin (RSA) [2]; Ka of OTA-RSA complex, no competitor, OTA 1.0 μM, RSA up to 1.5 μM, PBS pH 7.4, 1:1 stoichiometry): 340 nM and 345 nM; association/binding constant of the OTA-HSA complex (HSA [3]): exceeds 10^7 L/mol; fold weaker complex with RSA compared to HSA (rat serum albumin (RSA) [4]): approximately 10 fold; binding constant of OTA-BSA complex [5]: > 10^6 L/mol; fold weaker complex with BSA compared to HSA [5]: approximately 10 fold; free unbound fraction in the human circulation [6]: 0.02%; plasma elimination half-life in man [6]: approximately 35 days |
| O=c1cc(-c2ccccc2)oc2cc(OS(=O)(=O)O)cc(O)c12 [C7S, chrysin-7-sulfate] | strongly interfered | strongly disrupted | strong decreases | strong decreases | marked reduction | – | – | – | unbound fraction of OTA with HSA ([1]; ligand 15 μM): 55%; fold lower Ka of OTA-HSA in the presence of the ligand ([1]; ligand 30 μM): approximately 100 fold; unbound fraction of OTA with HSA ([1]; ligand 30 μM): 75%; displacement of OTA from RSA (free fraction), in words (rat serum albumin (RSA) [2]; ligand 30 μM): almost completely displaced; fold lower Ka of OTA-RSA in the presence of the ligand (rat serum albumin (RSA) [2]; ligand 30 μM): approximately 100 fold; effect on plasma levels of OTA, in words ([10]; C7S 1 mg/kg i.v. with OTA 50 μg/kg i.v., 2, 6 and 24 h): did not induce significant changes; effect on kidney levels of OTA, in words ([10]; C7S 1 mg/kg i.v. with OTA 50 μg/kg i.v., 24 h): did not affect; effect on kidney levels of OTA, in words [10, 15]: slightly decreased; effect on plasma levels of OTA, in words [10, 15]: not statistically significant; affinity to HSA, fold higher than CHR (HSA [11]): 3 fold |
| hemin | better displacing effect than bilirubin | – | remarkable decreases | remarkable decreases | smaller, gradual decreases | marked decreases | smaller, gradual decreases | – | displacement of OTA from RSA (free fraction), in words (rat serum albumin (RSA) [2]; ligand 15 and 30 μM): weak to moderate impacts |
| C=CC1=C(C)/C(=C/c2[nH]c(Cc3[nH]c(/C=C4\NC(=O)C(C)=C4C=C)c(C)c3CCC(=O)O)c(CCC(=O)O)c2C)NC1=O [bilirubin] | – | moderate to strong displacement | remarkable decreases | remarkable decreases | smaller, gradual decreases | marked decreases | smaller, gradual decreases | only a minor elevation | displacement of OTA from HSA (free fraction), in words ([1]; ligand 3 and 15 μM): no significant increase |
| O=C(CCCCC(=O)Nc1c(I)cc(I)c(C(=O)O)c1I)Nc1c(I)cc(I)c(C(=O)O)c1I [iodipamide] | – | weak displacing effects | only slightly modified | only slightly modified | only slightly decreased | – | only slightly decreased | only minor displacement | – |
| O=c1cc(-c2ccccc2)oc2cc(O)cc(O)c12 [CHR, Chrysin] | – | weak displacing effects | strong decreases | strong decreases | only slightly decreased | – | only slightly decreased | only minor displacement | effect on kidney levels of OTA, in words [13]: did not cause statistically significant changes; effect on plasma levels of OTA, in words [13]: did not cause statistically significant changes |
